For orientation: MIC means the lowest concentration that inhibits growth of the organism.

Values after ≈ are worked out from the molar mass of the structure shown.

We go through two compounds from ChEMBL document CHEMBL1240316, “An oxidation-sensing mechanism is used by the global regulator MgrA in Staphylococcus aureus” (2006).

Type in all cases: functional
The subject of experiment [1] is Staphylococcus aureus. Description: Antimicrobial activity against Staphylococcus aureus.
The subject of experiment [2] is Staphylococcus aureus. The experiment can be described thus: Antimicrobial activity against Staphylococcus aureus expressing mgrA C12S mutant gene.
For experiment [3], the system named is Staphylococcus aureus. Description: Antimicrobial activity against compound treated Staphylococcus aureus harboring mgrA C12S mutant gene retro-orbitally infected into mouse assessed as reduction in bacterial CFU in liver at 10 ug/ml relative to control.
In experiment [4] the test system is Staphylococcus aureus. Description: Antimicrobial activity against compound treated Staphylococcus aureus harboring mgrA C12S mutant gene retro-orbitally infected into mouse assessed as reduction in bacterial CFU in kidney at 10 ug/ml relative to control.

For the compound `CCn1cc(C(=O)O)c(=O)c2cc(F)c(N3CCNCC3)cc21` [NORFLOXACIN], the minimal inhibitory concentration (MIC) stood at 0.7 mg/L (≈ 2.19 µM) against Staphylococcus aureus [1] and 1.4 mg/L (≈ 4.38 µM) against Staphylococcus aureus [2].

On to `CC[C@H]1OC(=O)[C@H](C)[C@@H](O[C@H]2C[C@@](C)(OC)[C@@H](O)[C@H](C)O2)[C@H](C)[C@@H](O[C@@H]2O[C@H](C)C[C@H](N(C)C)[C@H]2O)[C@](C)(O)C[C@@H](C)C(=O)[C@H](C)[C@@H](O)[C@]1(C)O` [ERYTHROMYCIN], for which the entries for the “fold change (FC)” value in the experiment with Staphylococcus aureus [3] and with Staphylococcus aureus [4] were 100 and 10000, respectively.
